Results taken from patent US10392391B2 (Vertex Pharmaceuticals Incorporated, priority 2012, dated 2019).

Target: ATR kinase (full-length ATR) (Homo sapiens (Human), UniProt Q13535)
Test: ATR inhibition assay (radioactive-phosphate incorporation)
Format: biochemical
Conditions: not given
How it was run: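 Radiometric 33P incorporation by 5 nM full-length ATR into 800 μM target peptide with 10 μM [γ-33P]ATP, in 50 mM Tris/HCl pH 7.5, 10 mM MgCl2, 1 mM DTT, 7% DMSO, 25° C. Compound pre-incubated 10 minutes; reaction stopped after 24 hours, captured on phosphocellulose. Ki(app) from non-linear regression of initial rates.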

Chain of ATR kinase (full-length ATR) (Q13535 whole entry): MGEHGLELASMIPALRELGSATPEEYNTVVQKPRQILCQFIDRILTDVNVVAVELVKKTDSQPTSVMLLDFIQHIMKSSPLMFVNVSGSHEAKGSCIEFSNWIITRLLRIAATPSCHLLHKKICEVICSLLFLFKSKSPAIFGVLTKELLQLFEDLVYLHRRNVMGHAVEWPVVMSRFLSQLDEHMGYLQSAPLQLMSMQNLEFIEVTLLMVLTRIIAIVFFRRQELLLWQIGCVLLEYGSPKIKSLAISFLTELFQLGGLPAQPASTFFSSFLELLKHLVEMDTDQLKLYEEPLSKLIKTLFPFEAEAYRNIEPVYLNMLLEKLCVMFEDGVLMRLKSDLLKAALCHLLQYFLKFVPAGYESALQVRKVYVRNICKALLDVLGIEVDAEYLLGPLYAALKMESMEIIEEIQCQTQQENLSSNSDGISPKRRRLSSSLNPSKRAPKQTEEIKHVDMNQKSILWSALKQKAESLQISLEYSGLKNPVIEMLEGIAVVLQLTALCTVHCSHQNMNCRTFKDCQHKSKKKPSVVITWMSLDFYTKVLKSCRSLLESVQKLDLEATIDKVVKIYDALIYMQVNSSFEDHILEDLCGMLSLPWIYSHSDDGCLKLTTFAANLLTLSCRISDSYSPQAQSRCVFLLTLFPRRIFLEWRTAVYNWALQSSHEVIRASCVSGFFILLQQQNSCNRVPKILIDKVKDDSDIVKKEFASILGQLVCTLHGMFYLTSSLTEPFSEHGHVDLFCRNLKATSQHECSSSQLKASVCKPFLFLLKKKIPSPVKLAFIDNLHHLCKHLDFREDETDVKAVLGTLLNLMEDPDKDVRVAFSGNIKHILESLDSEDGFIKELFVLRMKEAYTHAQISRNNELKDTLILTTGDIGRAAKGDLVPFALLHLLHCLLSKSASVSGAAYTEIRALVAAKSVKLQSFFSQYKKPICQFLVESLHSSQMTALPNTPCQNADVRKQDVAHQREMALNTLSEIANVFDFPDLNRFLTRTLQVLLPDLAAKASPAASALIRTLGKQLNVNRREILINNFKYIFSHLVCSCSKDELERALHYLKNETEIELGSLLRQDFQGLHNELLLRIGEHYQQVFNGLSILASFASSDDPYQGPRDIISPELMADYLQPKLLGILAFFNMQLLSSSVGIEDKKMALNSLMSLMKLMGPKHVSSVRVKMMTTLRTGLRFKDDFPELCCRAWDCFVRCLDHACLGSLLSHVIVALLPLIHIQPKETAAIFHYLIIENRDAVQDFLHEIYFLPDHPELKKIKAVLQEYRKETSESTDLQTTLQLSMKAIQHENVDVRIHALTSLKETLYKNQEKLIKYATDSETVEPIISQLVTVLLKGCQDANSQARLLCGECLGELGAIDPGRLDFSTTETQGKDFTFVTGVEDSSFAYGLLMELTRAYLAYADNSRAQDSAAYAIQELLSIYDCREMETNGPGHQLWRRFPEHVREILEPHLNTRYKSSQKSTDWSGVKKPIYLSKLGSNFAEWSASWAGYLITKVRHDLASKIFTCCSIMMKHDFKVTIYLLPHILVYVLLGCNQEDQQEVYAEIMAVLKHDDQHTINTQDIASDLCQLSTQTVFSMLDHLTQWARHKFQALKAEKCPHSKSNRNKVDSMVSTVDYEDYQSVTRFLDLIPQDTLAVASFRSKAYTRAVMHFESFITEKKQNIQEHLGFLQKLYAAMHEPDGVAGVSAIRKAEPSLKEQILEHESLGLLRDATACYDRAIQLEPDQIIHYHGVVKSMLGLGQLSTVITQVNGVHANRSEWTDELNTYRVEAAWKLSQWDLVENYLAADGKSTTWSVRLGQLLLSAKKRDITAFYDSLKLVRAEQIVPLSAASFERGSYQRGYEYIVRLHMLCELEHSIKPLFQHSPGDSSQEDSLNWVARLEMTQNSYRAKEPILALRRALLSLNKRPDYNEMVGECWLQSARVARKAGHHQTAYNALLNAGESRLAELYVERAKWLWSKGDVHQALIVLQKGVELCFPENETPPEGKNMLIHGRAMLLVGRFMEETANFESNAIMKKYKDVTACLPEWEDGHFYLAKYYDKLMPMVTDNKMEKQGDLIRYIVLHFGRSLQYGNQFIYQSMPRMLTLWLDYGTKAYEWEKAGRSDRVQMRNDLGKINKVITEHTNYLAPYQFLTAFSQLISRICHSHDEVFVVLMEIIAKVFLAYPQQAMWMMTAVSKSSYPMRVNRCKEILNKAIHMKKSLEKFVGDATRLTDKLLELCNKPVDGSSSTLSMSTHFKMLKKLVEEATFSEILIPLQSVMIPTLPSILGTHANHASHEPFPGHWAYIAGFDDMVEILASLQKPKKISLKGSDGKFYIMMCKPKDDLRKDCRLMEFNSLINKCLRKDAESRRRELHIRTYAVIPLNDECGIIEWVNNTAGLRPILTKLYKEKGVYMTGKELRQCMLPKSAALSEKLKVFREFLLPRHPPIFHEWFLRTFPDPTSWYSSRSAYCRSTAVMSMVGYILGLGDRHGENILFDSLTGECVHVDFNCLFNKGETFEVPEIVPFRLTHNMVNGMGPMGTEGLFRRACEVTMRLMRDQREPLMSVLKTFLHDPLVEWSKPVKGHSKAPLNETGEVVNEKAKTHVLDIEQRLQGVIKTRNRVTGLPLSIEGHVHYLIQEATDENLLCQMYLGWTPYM

Ki [nM] | Compound
1000 to 5000 | CN1CCN(c2cc(Cl)ncc2NC(=O)c2c(N)nn3cc(Cl)cnc23)CC1 [I-N-52, 2-amino-6-chloro-N-(6-chloro-4-(4-methylpiperazin-1-yl)pyridin-3-yl)pyrazolo[1,5-a]pyrimidine-3-carboxamide]

Same assay, conditions: Ki(app), 5 nM full-length ATR, 10 μM ATP, 25° C.

Compound | Ki [nM]
Nc1nn2cc(F)cnc2c1C(=O)Nc1cncc(Cl)c1N1CCN2CCN(C3COC3)CC2C1 (centres unmarked) [I-N-38, 2-amino-N-(5-chloro-4-(8-(oxetan-3-yl)hexahydro-1H-pyrazino[1,2-a]pyrazin-2(6H)-yl)pyridin-3-yl)-6-fluoropyrazolo[1,5-a]pyrimidine-3-carboxamide] | 10 to 1000
CC(C)N1CCN(c2ccncc2NC(=O)c2c(N)nn3cc(Cl)cnc23)CC1 [I-N-39, 2-amino-6-chloro-N-(4-(4-isopropylpiperazin-1-yl)pyridin-3-yl)pyrazolo[1,5-a]pyrimidine-3-carboxamide] | 10 to 1000
CN(C)C1CCCN(c2ccncc2NC(=O)c2c(N)nn3cc(Cl)cnc23)C1 (centres unmarked) [I-N-40, 2-amino-6-chloro-N-(4-(3-(dimethylamino)piperidin-1-yl)pyridin-3-yl)pyrazolo[1,5-a]pyrimidine-3-carboxamide] | 10 to 1000
CN1CCN(c2c(Cl)cncc2NC(=O)c2c(N)nn3cc(Cl)cnc23)CC1 [I-N-41, 2-amino-6-chloro-N-(5-chloro-4-(4-methylpiperazin-1-yl)pyridin-3-yl)pyrazolo[1,5-a]pyrimidine-3-carboxamide] | 10 to 1000
Nc1nn2cc(Cl)cnc2c1C(=O)Nc1cnccc1N1C2CCC1CC(O)C2 (centres unmarked) [I-N-42, 2-amino-6-chloro-N-(4-(3-hydroxy-8-azabicyclo[3.2.1]octan-8-yl)pyridin-3-yl)pyrazolo[1,5-a]pyrimidine-3-carboxamide] | 10 to 1000
CN1CCCN(c2ccncc2NC(=O)c2c(N)nn3cc(Cl)cnc23)CC1 [I-N-43, 2-amino-6-chloro-N-(4-(4-methyl-1,4-diazepan-1-yl)pyridin-3-yl)pyrazolo[1,5-a]pyrimidine-3-carboxamide] | 10 to 1000
Nc1nn2cc(Cl)cnc2c1C(=O)Nc1cnccc1N1CCn2ccnc2C1 [I-N-44, 2-amino-6-chloro-N-(4-(5,6-dihydroimidazo[1,2-a]pyrazin-7(8H)-yl)pyridin-3-yl)pyrazolo[1,5-a]pyrimidine-3-carboxamide] | 10 to 1000
CN(C)CC1CCN(c2ccncc2NC(=O)c2c(N)nn3cc(Cl)cnc23)CC1 [I-N-45, 2-amino-6-chloro-N-(4-(4-((dimethylamino)methyl)piperidin-1-yl)pyridin-3-yl)pyrazolo[1,5-a]pyrimidine-3-carboxamide] | 10 to 1000
COC1(CN(C)C)CCN(c2ccncc2NC(=O)c2c(N)nn3cc(Cl)cnc23)CC1 [I-N-46, 2-amino-6-chloro-N-(4-(4-((dimethylamino)methyl)-4-methoxypiperidin-1-yl)pyridin-3-yl)pyrazolo[1,5-a]pyrimidine-3-carboxamide] | 10 to 1000
COCC1CN(c2ccncc2NC(=O)c2c(N)nn3cc(Cl)cnc23)CCN1C (centres unmarked) [I-N-47, 2-amino-6-chloro-N-(4-(3-(methoxymethyl)-4-methylpiperazin-1-yl)pyridin-3-yl)pyrazolo[1,5-a]pyrimidine-3-carboxamide] | 10 to 1000
Nc1nn2cc(Cl)cnc2c1C(=O)Nc1cnccc1N1CCN(C2CCC2)CC1 [I-N-48, 2-amino-6-chloro-N-(4-(4-cyclobutylpiperazin-1-yl)pyridin-3-yl)pyrazolo[1,5-a]pyrimidine-3-carboxamide] | 10 to 1000
CN(C)CCN1CCN(c2ccncc2NC(=O)c2c(N)nn3cc(Cl)cnc23)CC1 [I-N-49, 2-amino-6-chloro-N-(4-(4-(2-(dimethylamino)ethyl)piperazin-1-yl)pyridin-3-yl)pyrazolo[1,5-a]pyrimidine-3-carboxamide] | 10 to 1000
CN1CCN(c2cc(N)ncc2NC(=O)c2c(N)nn3cc(Cl)cnc23)CC1 [I-N-50, 2-amino-N-(6-amino-4-(4-methylpiperazin-1-yl)pyridin-3-yl)-6-chloropyrazolo[1,5-a]pyrimidine-3-carboxamide] | 10 to 1000
CCN1CCN(c2ccncc2NC(=O)c2c(N)nn3cc(Cl)cnc23)CC1 [I-N-51, 2-amino-6-chloro-N-(4-(4-ethylpiperazin-1-yl)pyridin-3-yl)pyrazolo[1,5-a]pyrimidine-3-carboxamide] | 10 to 1000
CN1CCN(c2ccncc2NC(=O)c2c(N)nn3cc(Cl)cnc23)CC1(C)C [I-N-53, 2-amino-6-chloro-N-(4-(3,3,4-trimethylpiperazin-1-yl)pyridin-3-yl)pyrazolo[1,5-a]pyrimidine-3-carboxamide] | 10 to 1000
Nc1nn2cc(Cl)cnc2c1C(=O)Nc1cnccc1N1CCN2CCC1CC2 [I-N-56, N-(4-(1,4-diazabicyclo[3.2.2]nonan-4-yl)pyridin-3-yl)-2-amino-6-chloropyrazolo[1,5-a]pyrimidine-3-carboxamide] | 10 to 1000

The remaining lines, values ahead:

Ki [nM] | Compound
10 to 1000 | CC1CN(c2ccncc2NC(=O)c2c(N)nn3cc(Cl)cnc23)CCN1C (centres unmarked) [I-N-54, 2-amino-6-chloro-N-(4-(3,4-dimethylpiperazin-1-yl)pyridin-3-yl)pyrazolo[1,5-a]pyrimidine-3-carboxamide]
10 to 1000 | Nc1nn2cc(Cl)cnc2c1C(=O)Nc1cnccc1N1CCCC(N)C1 (centres unmarked) [I-N-55, 2-amino-N-(4-(3-aminopiperidin-1-yl)pyridin-3-yl)-6-chloropyrazolo[1,5-a]pyrimidine-3-carboxamide]
10 to 1000 | Cc1cncc(NC(=O)c2c(N)nn3cc(Cl)cnc23)c1N1CCN(C)CC1 [I-N-57, 2-amino-6-chloro-N-(5-methyl-4-(4-methylpiperazin-1-yl)pyridin-3-yl)pyrazolo[1,5-a]pyrimidine-3-carboxamide]
10 to 1000 | CN1CCN(c2ccncc2NC(=O)c2c(N)nn3cc(Cl)cnc23)CC1 [I-N-59, 2-amino-6-chloro-N-(4-(4-methylpiperazin-1-yl)pyridin-3-yl)pyrazolo[1,5-a]pyrimidine-3-carboxamide]
10 to 1000 | COCCN1CCN(c2ccncc2NC(=O)c2c(N)nn3cc(Cl)cnc23)CC1 [I-N-60, 2-amino-6-chloro-N-(4-(4-(2-methoxyethyl)piperazin-1-yl)pyridin-3-yl)pyrazolo[1,5-a]pyrimidine-3-carboxamide]
10 to 1000 | CN1CCN2CCN(c3ccncc3NC(=O)c3c(N)nn4cc(Cl)cnc34)CC2C1 (centres unmarked) [I-N-61, 2-amino-6-chloro-N-(4-(8-methylhexahydro-1H-pyrazino[1,2-a]pyrazin-2(6H)-yl)pyridin-3-yl)pyrazolo[1,5-a]pyrimidine-3-carboxamide]
10 to 1000 | CC1(N2CCN(c3ccncc3NC(=O)c3c(N)nn4cc(F)cnc34)CC2)COC1 [I-N-62, 2-amino-6-fluoro-N-(4-(4-(3-methyloxetan-3-yl)piperazin-1-yl)pyridin-3-yl)pyrazolo[1,5-a]pyrimidine-3-carboxamide]
10 to 1000 | CN1CCN(c2ccncc2NC(=O)c2c(N)nn3cc(Cl)cnc23)CC1CO (centres unmarked) [I-N-63, 2-amino-6-chloro-N-(4-(3-(hydroxymethyl)-4-methylpiperazin-1-yl)pyridin-3-yl)pyrazolo[1,5-a]pyrimidine-3-carboxamide]
10 to 1000 | Nc1nn2cc(Cl)cnc2c1C(=O)Nc1cnccc1N1CCN(C2CC2)CC1 [I-N-64, 2-amino-6-chloro-N-(4-(4-cyclopropylpiperazin-1-yl)pyridin-3-yl)pyrazolo[1,5-a]pyrimidine-3-carboxamide]
